In ChEMBL document CHEMBL1201862, “PubChem BioAssay data set” (2004):
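Five compound concentrations were applied to cells in 96-well plates for 48 hours; endpoints were derived by simple linear interpolation of the resulting dose-response curve. At the GI50, growth is halved.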 Active and inactive are the calls of the source. Rule as the data show it: active = GI50 up to about 1.1 µM and inactive = higher.

Key:
Assay in all cases: growth of human tumour cells (NCI), 48 h
MCF7 = system: MCF7
SK-OV-3 = system: SK-OV-3
NCI/ADR-RES = system: NCI/ADR-RES
IGROV-1 = system: IGROV-1
A549 = system: A549
UACC-257 = system: UACC-257
KM12 = system: KM12
NCI-H460 = system: NCI-H460
DU-145 = system: DU-145
CAKI-1 = system: CAKI-1
SW-620 = system: SW-620
MDA-MB-231 = system: MDA-MB-231
HCT-116 = system: HCT-116
RPMI-8226 = system: RPMI-8226
MOLT-4 = system: MOLT-4
HT-29 = system: HT-29
SNB-19 = system: SNB-19
OVCAR-3 = system: OVCAR-3
SF-539 = system: SF-539
HL-60 = system: HL-60

Compound | GI50 (MCF7) | GI50 (SK-OV-3) | GI50 (NCI/ADR-RES) | GI50 (IGROV-1) | GI50 (A549) | GI50 (UACC-257) | GI50 (KM12) | GI50 (NCI-H460) | GI50 (DU-145) | GI50 (CAKI-1) | GI50 (SW-620) | GI50 (MDA-MB-231) | GI50 (HCT-116) | GI50 (RPMI-8226) | GI50 (MOLT-4) | GI50 (HT-29) | GI50 (SNB-19) | GI50 (OVCAR-3) | GI50 (SF-539) | GI50 (HL-60)
CCC(=O)OCc1ccc2oc(=O)c(C(=O)Oc3cncc(Cl)c3)cc2c1 | 76.4 µM (inactive) | > 100 µM (inactive) | > 100 µM (inactive) | > 100 µM (inactive) | > 100 µM (inactive) | > 100 µM (inactive) | > 100 µM (inactive) | > 100 µM (inactive) | > 100 µM (inactive) | > 100 µM (inactive) | > 100 µM (inactive) | > 100 µM (inactive) | 80 µM (inactive) | > 100 µM (inactive) | 30 µM (inactive) | 76 µM (inactive) | > 100 µM (inactive) | > 100 µM (inactive) | > 100 µM (inactive) | –
O=C(CCc1ccc(O)cc1)NCCc1cccc(O)c1 | > 50 µM (inactive) | > 50 µM (inactive) | > 50 µM (inactive) | > 50 µM (inactive) | > 50 µM (inactive) | > 50 µM (inactive) | > 50 µM (inactive) | > 50 µM (inactive) | > 50 µM (inactive) | > 50 µM (inactive) | – | > 50 µM (inactive) | > 50 µM (inactive) | – | > 50 µM (inactive) | > 50 µM (inactive) | > 50 µM (inactive) | > 50 µM (inactive) | > 50 µM (inactive) | > 50 µM (inactive)
COC(=O)/C=C1/N=C(N(C)/N=C/c2ccccc2)NC1=O | > 100 µM (inactive) | > 100 µM (inactive) | > 100 µM (inactive) | > 100 µM (inactive) | > 100 µM (inactive) | > 100 µM (inactive) | > 100 µM (inactive) | > 100 µM (inactive) | > 100 µM (inactive) | > 100 µM (inactive) | > 100 µM (inactive) | > 100 µM (inactive) | > 100 µM (inactive) | – | > 100 µM (inactive) | > 100 µM (inactive) | > 100 µM (inactive) | > 100 µM (inactive) | > 100 µM (inactive) | > 100 µM (inactive)
COC(=O)/C=C1\C(=O)Nc2ccc(Br)cc21 | 1.46 µM (inactive) | 3.53 µM (inactive) | 1.91 µM (inactive) | 1.75 µM (inactive) | 3.15 µM (inactive) | 1.37 µM (inactive) | 2.53 µM (inactive) | 2.25 µM (inactive) | 1.86 µM (inactive) | 1.04 µM (active) | 1.2 µM (inactive) | 2.51 µM (inactive) | 1.36 µM (inactive) | 1.41 µM (inactive) | 0.962 µM (active) | 1.73 µM (inactive) | 3.24 µM (inactive) | 1.46 µM (inactive) | – | 1.59 µM (inactive)
COc1ccc(C(=O)C(CC2C(=O)CC(C)(C)C(C(=O)C(=O)Nc3c(C)cccc3C)C2=O)c2ccc(OC)cc2)cc1 (stereo unspecified) | > 100 µM (inactive) | > 100 µM (inactive) | > 100 µM (inactive) | > 100 µM (inactive) | > 100 µM (inactive) | > 100 µM (inactive) | > 100 µM (inactive) | > 100 µM (inactive) | > 100 µM (inactive) | > 100 µM (inactive) | > 100 µM (inactive) | > 100 µM (inactive) | > 100 µM (inactive) | – | > 100 µM (inactive) | > 100 µM (inactive) | > 100 µM (inactive) | > 100 µM (inactive) | > 100 µM (inactive) | 96.6 µM (inactive)
O=C1CC(=O)NC(NN2C(=O)/C(=C/c3ccc(Cl)c(Cl)c3)N=C2c2ccccc2)=N1 | 16.7 µM (inactive) | 46.8 µM (inactive) | 19.8 µM (inactive) | 31.1 µM (inactive) | 27.2 µM (inactive) | 34.2 µM (inactive) | 16.4 µM (inactive) | 15.7 µM (inactive) | 48.2 µM (inactive) | 85.3 µM (inactive) | 30.4 µM (inactive) | 17.1 µM (inactive) | 17.7 µM (inactive) | 13.6 µM (inactive) | 15.2 µM (inactive) | 22.9 µM (inactive) | – | 19.1 µM (inactive) | 20.8 µM (inactive) | –
CC(C)(C)Cc1cc(O)ccc1O | 74.8 µM (inactive) | > 100 µM (inactive) | 35.6 µM (inactive) | > 100 µM (inactive) | 58.9 µM (inactive) | 33.3 µM (inactive) | 64.9 µM (inactive) | 63.4 µM (inactive) | > 100 µM (inactive) | > 100 µM (inactive) | 61.9 µM (inactive) | 42.2 µM (inactive) | 61.1 µM (inactive) | – | 36.4 µM (inactive) | > 100 µM (inactive) | 49.9 µM (inactive) | 39.3 µM (inactive) | 70.8 µM (inactive) | 6.73 µM (inactive)
CC1CCN(C(C)C)P(=S)(Cc2ccccc2)O1 (stereo unspecified) | > 100 µM (inactive) | > 100 µM (inactive) | > 100 µM (inactive) | > 100 µM (inactive) | > 100 µM (inactive) | 97.3 µM (inactive) | > 100 µM (inactive) | > 100 µM (inactive) | > 100 µM (inactive) | > 100 µM (inactive) | 7.93 µM (inactive) | > 100 µM (inactive) | 59.6 µM (inactive) | 99.8 µM (inactive) | > 100 µM (inactive) | > 100 µM (inactive) | > 100 µM (inactive) | 34.4 µM (inactive) | > 100 µM (inactive) | –
O=c1c2ccccc2nc(-c2cccc([N+](=O)[O-])c2)n1O | 24.4 µM (inactive) | 42.8 µM (inactive) | 23.3 µM (inactive) | 22.8 µM (inactive) | 34.9 µM (inactive) | 50.7 µM (inactive) | 36.5 µM (inactive) | 29.2 µM (inactive) | > 100 µM (inactive) | 40.7 µM (inactive) | 35.3 µM (inactive) | 17.5 µM (inactive) | 41.5 µM (inactive) | – | – | 43.7 µM (inactive) | 53.2 µM (inactive) | 31.6 µM (inactive) | 47.8 µM (inactive) | 1.64 µM (inactive)
C[C@]12CC[C@H]3[C@@H](CC=C4C[C@@H](N5CCCC5)CC[C@@]43C)[C@@H]1C/C(=C\c1ccc([N+](=O)[O-])cc1)[C@@H]2O | 20.7 µM (inactive) | 15.9 µM (inactive) | 17.7 µM (inactive) | 14.8 µM (inactive) | 17.1 µM (inactive) | 16.4 µM (inactive) | 16.2 µM (inactive) | 28.1 µM (inactive) | 17.3 µM (inactive) | 13.3 µM (inactive) | 17.9 µM (inactive) | 16.2 µM (inactive) | 16.3 µM (inactive) | 16.1 µM (inactive) | 0.942 µM (active) | 13.2 µM (inactive) | 24.7 µM (inactive) | 17 µM (inactive) | 15.4 µM (inactive) | –
Cc1nnc(-n2c(O)cc(=O)n(-c3ccccc3)c2=S)nc1/C=C/c1ccc(N(C)C)cc1 | 3.42 µM (inactive) | 11.7 µM (inactive) | 14.3 µM (inactive) | 5.98 µM (inactive) | 8.63 µM (inactive) | 15.5 µM (inactive) | 7.05 µM (inactive) | 8.79 µM (inactive) | 26.1 µM (inactive) | 5.7 µM (inactive) | 12.9 µM (inactive) | > 35.6 µM (inactive) | 11.9 µM (inactive) | 11.2 µM (inactive) | 15.6 µM (inactive) | 5 µM (inactive) | 20.4 µM (inactive) | – | – | 2.7 µM (inactive)
C/C(C[n+]1ccccc1)=N\N=C(N)N | > 100 µM (inactive) | > 100 µM (inactive) | > 100 µM (inactive) | > 100 µM (inactive) | > 100 µM (inactive) | > 100 µM (inactive) | > 100 µM (inactive) | > 100 µM (inactive) | > 100 µM (inactive) | > 100 µM (inactive) | > 100 µM (inactive) | > 100 µM (inactive) | > 100 µM (inactive) | > 100 µM (inactive) | > 100 µM (inactive) | > 100 µM (inactive) | > 100 µM (inactive) | > 100 µM (inactive) | – | > 100 µM (inactive)
CC(=O)OC1CC[C@]2(C)C3CC[C@@]4(C)C(CCC4[C@H](C)CCCC(C)C)[C@@H]3CCC2(Br)C1 (stereo partly specified) | 10.5 µM (inactive) | > 50 µM (inactive) | 41 µM (inactive) | 11.9 µM (inactive) | 19.8 µM (inactive) | 31.7 µM (inactive) | 21.4 µM (inactive) | 39.7 µM (inactive) | > 50 µM (inactive) | 9.1 µM (inactive) | 9.42 µM (inactive) | 13.7 µM (inactive) | 9.29 µM (inactive) | – | 9.98 µM (inactive) | 17.5 µM (inactive) | 27.4 µM (inactive) | 14.5 µM (inactive) | 9.18 µM (inactive) | 9.59 µM (inactive)
NC(CP(=O)(O)O)C(=O)O (stereo unspecified) | > 100 µM (inactive) | > 100 µM (inactive) | > 100 µM (inactive) | > 100 µM (inactive) | > 100 µM (inactive) | > 100 µM (inactive) | > 100 µM (inactive) | > 100 µM (inactive) | > 100 µM (inactive) | > 100 µM (inactive) | > 100 µM (inactive) | > 100 µM (inactive) | > 100 µM (inactive) | > 100 µM (inactive) | > 100 µM (inactive) | > 100 µM (inactive) | > 100 µM (inactive) | > 100 µM (inactive) | – | > 100 µM (inactive)
NS(=O)(=O)c1ccc(/N=N/c2ccc(O)c(C(=O)O)c2)cc1 [SALAZOSULFAMIDE] | > 100 µM (inactive) | > 100 µM (inactive) | > 100 µM (inactive) | > 100 µM (inactive) | > 100 µM (inactive) | > 100 µM (inactive) | > 100 µM (inactive) | > 100 µM (inactive) | > 100 µM (inactive) | > 100 µM (inactive) | > 100 µM (inactive) | > 100 µM (inactive) | > 100 µM (inactive) | > 100 µM (inactive) | > 100 µM (inactive) | > 100 µM (inactive) | > 100 µM (inactive) | > 100 µM (inactive) | – | 29.1 µM (inactive)
